Measured values reported in a melting point compilation (Tetko et al.; mined from patent text by program, amines drawn as free bases though some values may be those of a salt).

Row | Compound | melting point [°C]
1 | CS(=O)Cc1nnc(-c2ccc3occ(-c4cccc(OC(F)(F)F)c4)c3c2)o1 (centres undefined) | 138 to 139
2 | CSc1cc(C)nc(SC)c1NC(=O)CN1CCN(CCO)CC1 | 119 to 120
3 | CC(C)C[C@H]1[C@@H](O)C(=O)N1C(=O)OC(C)(C)C | 108
4 | CC(=O)Nc1c(C)c(C)c2c(c1C)CC(C)(C)O2 | 190
5 | Nc1ncc(-c2noc(-c3cnn4c(C(F)(F)F)cc(-c5ccc(C(F)(F)F)cc5)nc34)n2)cn1 | 254
6 | O=C(NCc1cccnc1)N(c1ccccc1)c1ccccc1 | 143
7 | CCCC(=O)NS(=O)(=O)c1ccc(C(=O)C=Cc2cc(-c3cc4ccccc4[nH]3)c(OC)cc2OC)cc1 | 155 to 165
8 | COc1ccc(N2CCOCC2)c2sc(-c3ncc(-c4sc5ccccc5c4C)[nH]3)nc12 | 213 to 215
9 | O=C(Cc1ccc(OCc2ccccc2F)cc1)NC1(C(=O)O)Cc2ccc(-c3ccc(Cl)cc3)cc2C1 (centres undefined) | 232 to 233
10 | COCCn1cc(-c2ccc3nnn(Cc4ccc5ncccc5c4)c3n2)cn1 | 162 to 164
11 | COc1cc(NC(=O)c2ccccc2Cl)ccc1C(=O)N1CCCC(OCCNC(N)=O)c2cc(Cl)ccc21 (centres undefined) | 206 to 207
12 | COc1cc2c(cc1-c1ccc(F)cc1)C(=CNc1ccc(CN3CCCCC3)cc1)C(=O)NC2=O | 227 to 230
13 | CC(=O)NCCc1ccc(C=CC(=O)O)cc1 | 206 to 208
14 | CC(C)(CO)Cc1cccc(C(O)c2cccc(CC(C)(C)CO)c2)c1 | 98 to 99
15 | COC(=O)C1Oc2ccccc2C(C)c2cc(Cl)ccc2O1 (centres undefined) | 124 to 136
16 | Cc1cc(C=O)cc(Oc2nc(OCc3ccccc3)nc(OCc3ccccc3)c2C(C)C)c1 | 171 to 172
17 | O=C(O)CN1C(=O)C(NC(=O)Nc2cccc3ccccc23)CCc2ccccc21 (centres undefined) | 215 to 216
18 | CC(C)c1cc2nc(N)sc2cc1Sc1ccc(CCc2ccc(F)cc2)c(CCC2=C(O)CC(C(C)C)OC2=O)c1 (centres undefined) | 204 to 206
19 | CN1CNS(=O)(=O)c2cc(O)ccc21 | 168 to 172
20 | CC(C)CC(NC(=O)C(Cc1ccccc1)NC(=O)C1CCCCC1C(=O)O)C(=O)O (centres undefined) | 84 to 122
21 | CC(=O)Nc1ccc(C(O)C2CCN(CCc3ccccc3)CC2)cc1 (centres undefined) | 173 to 174
22 | Cc1ccc(-c2nc(-c3ccc(C)cc3)nc(-c3ccc(C)cc3)n2)cc1 | 282 to 285
23 | CC(C)(C)c1ncc(Nc2ncc(-c3ccc4ccncc4c3)c3ccccc23)cn1 | 231 to 232
24 | CCOC(=O)C(C#N)=C(C)Nc1ccnc(-c2ccncc2)n1 | 203 to 205
25 | O=C1CCCSC1C(=O)c1ccc([N+](=O)[O-])cc1Cl (centres undefined) | 59.5 to 62.5

Row | Compound | melting point [°C]
26 | C=CCNc1nc(-c2ccccc2)ncc1C(=O)OCC | 49 to 54
27 | Cc1cccc(S(=O)(=O)NC(=O)NCCCCCCNC(=O)NS(=O)(=O)c2cccc(Cl)c2)c1 | 187 to 189
28 | COc1cc(Cl)c(C(=O)c2ccccc2F)c(OC)c1 | 88 to 92
29 | C=CCOc1ccc2oc(C(=O)c3ccc(F)cc3)c(C)c2c1 | 80 to 82
30 | Nc1cc(OCC(CO)OCP(=O)(O)O)nc(N)n1 (racemic) | 213
31 | Cc1ccccc1Sc1cccc(C(C)C(=O)O)c1O (centres undefined) | 123 to 125
32 | CCCC1CCC(C#Cc2ccc(OCC)c(F)c2F)CC1 (centres undefined) | 64
33 | CCC(CC)Nc1cc(C)nc2c1CCC(=O)N2c1c(C)cc(C)cc1C | 124 to 126
34 | NC(=O)C(Cc1ccccc1)=NNc1ccc(C(O)(C(F)(F)F)C(F)(F)F)cc1 | 211 to 213
35 | CC(=O)N[C@@H](C)COC1CCN(c2nc3ccc(OCC(F)(F)F)cc3s2)CC1 | 129 to 131
36 | CCCC[C@H](NC(=O)[C@H](CC(C)C)NC(=O)OCc1ccc(F)cc1)C(=O)CSCc1ccco1 | 67 to 68
37 | CNC(=O)N(O)C(C)c1ccc(Br)cc1 (centres undefined) | 129 to 130
38 | O=c1c2ccccc2sc2ccc(SC(F)(F)F)cc12 | 126 to 127
39 | O=[N+]([O-])c1cc(C(F)(F)F)cc([N+](=O)[O-])c1Nc1ncc(Cl)cc1Cl | 85 to 87
40 | COC(=O)c1ccc(OCC(O)COc2ccc(Cl)cc2)cc1 (centres undefined) | 88 to 90
41 | CC#Cc1ccc2[nH]c(C(=O)OCC)cc2c1 | 166 to 167
42 | CCOC(=O)Cc1ccc(NC(=O)C(CCc2ccccc2)NS(=O)(=O)c2ccc(Cl)cc2)cc1 (racemic) | 114 to 115
43 | O=C(O)c1c(F)c(F)c(O)c(Cl)c1F | 87 to 90
44 | O=C(c1ccc(Cl)cc1)c1ccc2[nH]c(=O)cc(C(=O)O)c2c1 | > 260
45 | CCCCOC(=O)N[C@H](C(=O)NCCc1ccc(OCC#Cc2ccc(Cl)cc2)c(OC)c1)C(C)C | 141 to 142
46 | O=C1Cc2cc3c(cc2C(c2ccc(F)cc2)=NN1)OCO3 | 205 to 207
47 | OCc1csc(=S)n1-c1ccc(F)c(F)c1F | 113 to 116
48 | COc1ccc(N2CCOCC2)c2sc(-c3nc4c([nH]3)CCN(C(C)=O)CC4)nc12 | 195 to 197
49 | CCCCCS(=O)(=O)NC(=O)/C=C/c1ccc(OC(COCC)COCC)cc1Oc1ncc(C(F)(F)F)cc1Cl | 83 to 85.5
50 | NC(=O)[C@@H]1CCCc2cc(Sc3ccccc3)cc(F)c21 | 167 to 168

Row | Compound | melting point [°C]
51 | N#Cc1c[nH]cc1C(F)(F)F | 96 to 97
52 | CCCCCCCN(CCCCCSc1ncnc2[nH]ncc12)C(=O)NC(C)C | 81 to 83
53 | CC1(C)Oc2ccc(S(=O)(=O)C(F)(F)F)cc2[C@@H](N2Cc3ccccc3C2=O)[C@@H]1O (relative stereo) | 279 to 281
54 | NC(=O)c1cc(-c2ccccc2)c(=O)n2c1-c1ccccc1C2 | 294 to 296
55 | O=[N+]([O-])c1cc(Cl)c([N+](=O)[O-])c(Cl)c1 | 109 to 112
56 | C[C@H]1C(=O)Nc2ccc(Cl)cc2N1C(=O)Cl | 194 to 195
57 | CC1(C)CCC(C)(C)c2cc(CC(=O)O)ccc21 | 149 to 150
58 | CCN(CC)CCOc1cccc2c1c1ccccc1n2Cc1ccccc1 | 79 to 80.5
59 | OC1CSC(Oc2ccc(-c3ccnc(F)c3)nc2Cl)C(O)C1O (centres undefined) | 195
60 | Clc1c(CBr)c(CBr)cc2ccccc12 | 108
61 | CCSc1nc(-c2ccco2)c2ncn(Cc3ccc(OC)cc3)c2n1 | 116 to 117
62 | O=C(O)C(=O)c1ccc(OCCc2ccccc2)cc1 | 72 to 73
63 | N=C(NO)c1ncn2c(C(F)(F)F)cc(-c3ccc(C(F)(F)F)cc3)nc12 | 213
64 | N#CCNC(=O)c1cccc2ccccc12 | 160 to 163
65 | CCCc1oc(-c2ccccc2)nc1COc1ccc(COc2cccc(CC(=O)O)c2)cc1 | 115 to 116
66 | O=c1[nH][nH]c(=O)c2c(O)c(-c3ccccc3)ncc12 | > 300
67 | O=C1C(=Cc2ccccc2N2CCNCC2)SCCN1c1ccc(Cl)c(Cl)c1 | 154 to 155
68 | N#CC1=C(C2CCCCCC2)Nc2n[nH]cc2C1c1cccc(C#N)c1Br (centres undefined) | 252
69 | C[C@H]([C@@H](C)P(=S)(c1ccccc1)c1ccccc1)P(=S)(c1ccccc1)c1ccccc1 | 213 to 214
70 | O=C(O)c1c[nH]c(=O)n(-c2ccccc2S)c1=O | 254 to 255
71 | CCCC1CCC(/C(F)=C(\F)c2ccc(OCC)c(F)c2F)CC1 (centres undefined) | 60
72 | CS(=O)(=O)c1ccc(-c2[nH]nc(C(=O)CCCO[N+](=O)[O-])c2-c2ccc(C#N)cc2)cc1 | 148 to 149
73 | CCOC(=O)COc1ccc(N)c(C)c1 | 198 to 200
74 | O=S1(=O)c2cccc3c(Cl)ccc(c23)N1CCCN1CC=C(c2ccccc2)CC1 | 135
75 | Oc1ccc2c(c1)C1CNCC(C2)C1 (centres undefined) | 215 to 217

Row | Compound | melting point [°C]
76 | COc1ccc2nccc(CCNC(C)=O)c2c1 | 113 to 115
77 | CN1CCN(Nc2cc(Cl)ccc2[N+](=O)[O-])CC1 | 108
78 | CCCn1nc(C(C)C)c(C(=O)OCc2ccccc2C(=O)c2ccccc2)c1Cc1ccc(-c2ccccc2S(N)(=O)=O)c(F)c1 | 49 to 51
79 | CCCCCCCCCCCC1Cc2cc(C(=O)O)ccc2N1C (racemic) | 102 to 104
80 | O=C(CC(CCCc1ccccc1)C(=O)O)c1ccc2c3c(oc2c1)CCCC3 (centres undefined) | 142 to 144
81 | CC1(C)OC(C=Cc2cc3ccccc3s2)=CC1=O | 104
82 | CCCCOc1cc(/C=C(\OC)C(=O)O)ccc1CCCc1ccc(OS(=O)(=O)CCCC)c(OC)c1 | 72.5
83 | Cc1ccc(C(=O)NC(NC(=S)Nc2cccc(C(F)(F)F)c2F)C(F)(F)F)cc1 (centres undefined) | 179 to 181
84 | Clc1cc2ccccc2cn1 | < 50
85 | Cc1cnn(-c2ccccc2)c1-c1nn(-c2cccc(C(F)(F)F)c2)ccc1=O | 208 to 211
86 | N#Cc1ccc(C(=O)C23CCCN2C(=O)N(c2cc(Cl)cc(Cl)c2)C3=O)cc1 (centres undefined) | 72.1
87 | N#Cc1ccc(NC(=O)c2ccc3ccccc3c2O)c(OC(F)(F)F)c1 | 178
88 | COCCOCCOc1ccc2cc(C(=O)O)[nH]c2c1 | 99 to 102
89 | O=c1n(O)ccn1Cc1ccc(OCc2ccccc2)cc1 | > 175
90 | CCCc1c(C(=O)CO)c2ccc(C(N)=O)cc2n1Cc1ccccc1Cl | 231 to 234
91 | Nc1nccc(OCCc2ccccc2)c1N | 86 to 87
92 | O=CC1=Cc2cc(OCc3ccc(C(F)(F)F)cc3)ccc2OC1 | 108 to 110
93 | COC(=O)C1=CCC(C#N)(c2ccc(OC)c(OC3CCCC3)c2)CC1 (centres undefined) | 128 to 129
94 | CS(=O)(=O)c1ccc(-c2cc(C(CCCCCO[N+](=O)[O-])=NO)nn2C2CCCCC2)cc1 | 111 to 113
95 | COC1CCc2c(cc(-c3ccccc3)n2-c2ccc(O)c(C(=O)O)c2)C1 (centres undefined) | 207 to 210
96 | Cc1ccc(C)c2c(OCCNC(=O)OC(C)(C)C)noc12 | 78 to 79
97 | CC(C)c1nc(CCOCc2ccccc2)n(Cc2cccc([N+](=O)[O-])c2)c1Sc1cc(Cl)cc(Cl)c1 | 119 to 122
98 | CCc1ccc(Oc2cnc[nH]c2=O)cc1 | 144 to 146
99 | CCNCCC(=O)N1c2ccccc2CCc2ccc(NC(=O)OCC)cc21 | 150
